Measured values published in patent US20180098959A1, “METHODS FOR TREATING CANCER” (BOSTON BIOMEDICAL, INC., priority 2015, published 2018).
Read-outs that look alike come from different tables or passages of the source.

How the values were obtained:
FaDu cancer stem cells = experiment: stemness gene expression versus chemo- and targeted therapeutics; assay type: cell-based; conditions: 24 hours, 2-acetylnaphtho[2,3-b]furan-4,9-dione 2 mM, sunitinib 20 mM, gemcitabine 2 mM, carboplatin 32 mM, FIGS. 4(A)-(D)
Method: FIGS. 4(A)-(D) depict FaDu cancer stem cells that were treated for 24 hours with DMSO and: (i) 2-acetylnaphtho[2,3-b]furan-4,9-dione (2 mM) (FIG. 4(A)), (ii) sunitinib (20 mM) (FIG. 4(B)), (iii) gemcitabine (2 mM) (FIG. 4(C)), or (iv) carboplatin (32 mM) (FIG. 4(D)).

mCRC = conditions: Single Agent, panitumumab value for K-Ras WT, cited from earlier work
cancer stem cells = experiment: effects on cancer stem cells with and without 5-fluorouracil; assay type: cell-based; conditions: FIG. 7
Source text: The effects on cancer stem cells of 2-acetylnaphtho[2,3-b]furan-4,9-dione was also examined with and without 5-fluorouracil by using methods similar to those disclosed in U.S. pre-grant Publication No. 2012/0252763, Example 3.

p-Stat3 and β-catenin = experiment: cancer stem cell markers in cancer xenograft models (immunofluorescence); assay type: in vivo, athymic nude mice; conditions: human colon cancer xenograft Tumor (SW480) in nude mice, tumors harvested after first dosing; FIG. 5
Method: The effects of 2-acetylnaphtho[2,3-b]furan-4,9-dione on cancer stem cell markers was also examined in cancer xenograft models with and without irinotecan. Human cancer cells were subcutaneously implanted into the right flank of 5-7 weeks old female athymic nude mice. When tumor size reached 200 mm^3, animals were treated with 2-acetylnaphtho[2,3-b]furan-4,9-dione, irinotecan, or a combination of 2-acetylnaphtho[2,3-b]furan-4,9-dione and irinotecan. Tumors were harvested after first dosing.
The harvested tissues were fixed in 3.7% neutral buffered formaldehyde at 4° C. for overnight. The paraffin was embedded, cut to about 5 microns, and affixed onto positively charged slides. After being baked and de-paraffinized, the slides with tumor or control tissues were incubated in 10 mM Sodium Citrate (pH 6.0) for 10 minutes. After antigen retrieval, slides were probed with primary antibodies P-STAT3 (rabbit, Cell Signaling, 1:100), 13-Catenine (mouse, Santa Cruz, 1:400) at 4° C. overnight, and then Alexa Fluor fluorescent dyes-conjugated secondary antibodies (1:500, Invitrogen). After mounting with ProLong mounting medium with DAPI (Invitrogen), the slides were examined under a Zeiss fluorescence microscope with 20× objective, and analyzed with Zen software.

FaDu sphere cultures = experiment: qPCR cancer stem cell array, gene expression after treatment; assay type: cell-based; parameters: % Change ATM gene expression / % Change WEE1 gene expression / % Change ACTB gene expression / % Change MERTK gene expression / % Change FGFR2 gene expression / % Change EPCAM gene expression / % Change NOTCH2 gene expression / % Change DDR1 gene expression / % Change STAT3 gene expression / % Change LATS1 gene expression / % Change GSK3B gene expression / % Change TWIST2 gene expression / % Change ITGA2 gene expression / % Change ENG gene expression / % Change PLAUR gene expression / % Change SMO gene expression / % Change DACH1 gene expression / % Change EGF gene expression / % Change TGFBR1 gene expression / % Change ALCAM gene expression / % Change ALDH1A1 gene expression / % Change MAML1 gene expression / % Change HDAC1 gene expression / % Change RPLP0 gene expression / % Change WWC1 gene expression / % Change CD44 gene expression / % Change TAZ gene expression / % Change ITGA6 gene expression / % Change HPRT1 gene expression / % Change JAG1 gene expression / % Change ITGB1 gene expression / % Change IKBKB gene expression / % Change ID1 gene expression / % Change AXL gene expression / % Change DNMT1 gene expression / % Change ITGA4 gene expression / % Change KITLG gene expression / % Change ETFA gene expression / % Change IL8 gene expression / % Change JAK2 gene expression / % Change FOXP1 gene expression / % Change MYC gene expression / % Change NANOG gene expression / % Change YAP1 gene expression / % Change FLOT2 gene expression / % Change KLF17 gene expression / % Change BMI1 gene expression / % Change CHEK1 gene expression / % Change CD34 gene expression / % Change NOTCH1 gene expression / % Change LIN28A gene expression / % Change ATXN1 gene expression / % Change MUC1 gene expression / % Change POU5F1 gene expression / % Change ERBB2 gene expression / % Change CD24 gene expression / % Change PECAM1 gene expression / % Change SIRT1 gene expression / % Change NFKB1 gene expression: dose or concentration left out as unconfirmed
Method: Changes in gene expression following treatment with 2-acetylnaphtho[2,3-b]furan-4,9-dione were evaluated using a cancer stem cell PCR array.
FaDu sphere cultures were treated for 6 hours with DMSO (control) or 2-acetylnaphtho[2,3-b]furan-4,9-dione at 2 mM. RNA was isolated, reversed transcribed, and the resulting cDNA was analyzed using a qPCR cancer stem cell array. Glyceraldehyde 3-phosphate dehydrogenase (GAPDH) was used as a housekeeping gene to normalize the data.

hepatocellular carcinoma = experiment: combination with FOLFOX, hepatocellular carcinoma patients; assay type: in vivo, human; conditions: Chemo Backbone FOLFOX
Method: The effects of 2-acetylnaphtho[2,3-b]furan-4,9-dione in combination with FOLFOX were assessed in adult patients with hepatocellular carcinoma in a clinical study.
Patients who were pretreated with 1 and 4 lines of prior treatment, respectively, received oral administration of 2-acetylnaphtho[2,3-b]furan-4,9-dione twice daily together with FOLFOX. For example, 2-acetylnaphtho[2,3-b]furan-4,9-dione was administered at a dose of 240 mg BID in combination with FOLFOX. Oxaliplatin 85 mg/m^2 together with leucovorin 400 mg/m^2 were administered intravenously. 5-FU 400 mg/m^2 bolus was administered intravenously immediately following oxaliplatin/leucovorin infusion, followed by 5-FU 1200 mg/m^2/day (total 2400 mg/m^2 over 46-48 hours) continuous intravenous infusion. This regimen was repeated every 14 days thereafter or until progression of disease, unacceptable toxicity, or other discontinuation criterion was met.

[1] = system: esophageal adenocarcinoma; experiment: combination with CAPDX regimen, esophageal adenocarcinoma patients; assay type: in vivo, human; conditions: Chemo Backbone CAPOX, 0 prior lines
Method: The effects of 2-acetylnaphtho[2,3-b]furan-4,9-dione in combination with capecitabine as part of a CAPDX regimen was assessed in adult patients with esophageal adenocarcinoma.
Four patients aged 58-82 who were pretreated with 0-3 lines of prior treatment received oral administration of 2-acetylnaphtho[2,3-b]furan-4,9-dione twice daily together with CAPDX. For example, 2-acetylnaphtho[2,3-b]furan-4,9-dione was administered at a dose of 240 mg BID or 480 mg BID in combination with CAPDX until progression of disease, unacceptable toxicity, or other discontinuation criterion was met. CAPDX was administered orally (capecitabine) and IV (oxaliplatin). Capecitabine 850 mg/m^2 was administered orally twice-daily for 14 consecutive days and repeated every 21 days or until progression of disease, unacceptable toxicity, or other discontinuation criterion was met. Oxaliplatin 130 mg/m^2 was administered IV and repeated every 21 days thereafter. If capecitabine was tolerated at the 850 mg/m^2 twice daily dose, dosage was increased to 1000 mg/m^2 twice daily as tolerated after the first cycle.

[2] = FaDu sphere cultures, 6 hours, GAPDH-normalized, vs DMSO control

N.N.O=C([O-])C1(C(=O)[O-])CCC1.[Pt+2] [carboplatin]
expression of self-renewal / CSC genes (β-Catenin, Nanog, Smo, Sox2) (FaDu cancer stem cells): increased CSC gene expression in certain cases

panitumumab
Historical DCR (in Evaluable patients with mCRC) (mCRC): 30-40% (K-Ras WT) | Historical DCR (in Evaluable patients with mCRC) (mCRC; listed as panitumumab): 30-40%

O=c1[nH]cc(F)c(=O)[nH]1 [5-fluorouracil, reference compound]
increase in the number of cancer stem cells compared to control cells (cancer stem cells): approximately 3 fold | expression of self-renewal / CSC genes (β-Catenin, Nanog, Smo, Sox2) (FaDu cancer stem cells): increased CSC gene expression in certain cases

O=C1[O][Pt]2([NH][C@@H]3CCCC[C@H]3[NH]2)[O]C1=O [oxaliplatin]
expression of self-renewal / CSC genes (β-Catenin, Nanog, Smo, Sox2) (FaDu cancer stem cells): increased CSC gene expression in certain cases

CC(=O)c1cc2c(o1)C(=O)c1ccccc1C2=O [2-acetylnaphtho[2,3-b]furan-4,9-dione]
expression of p-Stat3 and β-catenin stem cell markers (p-Stat3 and β-catenin): dramatically reduced expression | % Change ACTB gene expression (FaDu sphere cultures; [2]): −24.49% | % Change ALCAM gene expression (FaDu sphere cultures; [2]): −36.13% | % Change ALDH1A1 gene expression (FaDu sphere cultures; [2]): −18.18% | % Change ATM gene expression (FaDu sphere cultures; [2]): −68.65% | % Change ATXN1 gene expression (FaDu sphere cultures; [2]): −45.26% | % Change AXL gene expression (FaDu sphere cultures; [2]): −48.50% | % Change B2M gene expression (FaDu sphere cultures; [2]): −27.69% | % Change BMI1 gene expression (FaDu sphere cultures; [2]): −47.40% | % Change CD24 gene expression (FaDu sphere cultures; [2]): −26.46% | % Change CD34 gene expression (FaDu sphere cultures; [2]): −88.18% | % Change CD44 gene expression (FaDu sphere cultures; [2]): −35.44% | % Change CHEK1 gene expression (FaDu sphere cultures; [2]): −28.88% | % Change DACH1 gene expression (FaDu sphere cultures; [2]): −36.55% | % Change DDR1 gene expression (FaDu sphere cultures; [2]): −38.59% | % Change DNMT1 gene expression (FaDu sphere cultures; [2]): −32.09% | % Change EGF gene expression (FaDu sphere cultures; [2]): −19.07% | % Change ENG gene expression (FaDu sphere cultures; [2]): −37.62% | % Change EPCAM gene expression (FaDu sphere cultures; [2]): −22.87% | % Change ERBB2 gene expression (FaDu sphere cultures; [2]): −43.81% | % Change ETFA gene expression (FaDu sphere cultures; [2]): −31.12% | % Change FGFR2 gene expression (FaDu sphere cultures; [2]): −41.18% | % Change FLOT2 gene expression (FaDu sphere cultures; [2]): −29.19% | % Change FOXP1 gene expression (FaDu sphere cultures; [2]): −29.76% | % Change GSK3B gene expression (FaDu sphere cultures; [2]): −38.06% | % Change HDAC1 gene expression (FaDu sphere cultures; [2]): −36.10% | % Change HPRT1 gene expression (FaDu sphere cultures; [2]): −33.81% | % Change ID1 gene expression (FaDu sphere cultures; [2]): −12.68% | % Change IKBKB gene expression (FaDu sphere cultures; [2]): −32.11% | % Change IL8 gene expression (FaDu sphere cultures; [2]): −7.62% | % Change ITGA2 gene expression (FaDu sphere cultures; [2]): −60.71% | % Change ITGA4 gene expression (FaDu sphere cultures; [2]): −11.52% | % Change ITGA6 gene expression (FaDu sphere cultures; [2]): −54.63% | % Change ITGB1 gene expression (FaDu sphere cultures; [2]): −50.45% | % Change JAG1 gene expression (FaDu sphere cultures; [2]): −14.24% | % Change JAK2 gene expression (FaDu sphere cultures; [2]): −47.94% | % Change KITLG gene expression (FaDu sphere cultures; [2]): −47.99% | % Change KLF17 gene expression (FaDu sphere cultures; [2]): −90.18% | % Change LATS1 gene expression (FaDu sphere cultures; [2]): −60.75% | % Change LIN28A gene expression (FaDu sphere cultures; [2]): −87.52% | % Change MAML1 gene expression (FaDu sphere cultures; [2]): −52.82% | % Change MERTK gene expression (FaDu sphere cultures; [2]): −65.78% | % Change MUC1 gene expression (FaDu sphere cultures; [2]): −27.42% | % Change MYC gene expression (FaDu sphere cultures; [2]): −3.91% | % Change NANOG gene expression (FaDu sphere cultures; [2]): −93.34% | % Change NFKB1 gene expression (FaDu sphere cultures; [2]): −25.54% | % Change NOTCH1 gene expression (FaDu sphere cultures; [2]): −46.24% | % Change NOTCH2 gene expression (FaDu sphere cultures; [2]): −64.37% | % Change PECAM1 gene expression (FaDu sphere cultures; [2]): −70.26% | % Change PLAUR gene expression (FaDu sphere cultures; [2]): −20.64% | % Change POU5F1 gene expression (FaDu sphere cultures; [2]): −77.31% | % Change RPLP0 gene expression (FaDu sphere cultures; [2]): −17.48% | % Change SIRT1 gene expression (FaDu sphere cultures; [2]): −43.35% | % Change SMO gene expression (FaDu sphere cultures; [2]): −55.56% | % Change STAT3 gene expression (FaDu sphere cultures; [2]): −22.87% | % Change TAZ gene expression (FaDu sphere cultures; [2]): −15.09% | % Change TGFBR1 gene expression (FaDu sphere cultures; [2]): −53.34% | % Change TWIST2 gene expression (FaDu sphere cultures; [2]): −21.59% | % Change WEE1 gene expression (FaDu sphere cultures; [2]): −42.86% | % Change WWC1 gene expression (FaDu sphere cultures; [2]): −51.64% | % Change YAP1 gene expression (FaDu sphere cultures; [2]): −47.45% | expression of cancer stem cell markers and genes such as Nanog, Axl, Atm, and Bmi-1 (FaDu sphere cultures; cancer stem cell PCR array): downregulated | Best Response, regression (hepatocellular carcinoma; Patient 0089, BBI608 240 mg bid, 1 prior line): 9% | Best Response, regression (hepatocellular carcinoma; Patient 0121, BBI608 240 mg bid, 4 prior lines): 9% | expression of self-renewal / CSC genes (β-Catenin, Nanog, Smo, Sox2) (FaDu cancer stem cells): decreased expression | Best Response, regression ([1]; Patient 0012, BBI608 240 mg bid): 50% | Best Response, regression ([1]; Patient 0021, BBI608 480 mg bid): 24%
